Experimental data as given in paper PMC12300041, “Tricyclic Isatin Derivatives as Anti-Inflammatory Compounds with High Kinase Binding Affinity” (Molecules, 2025).

Columns and labels:
Experiment in all cases: KINOMEscan
Type in all cases: binding
ACVR1 = target: T1, ACVR1 (Homo sapiens, UniProt Q04771)
T1 construct: purchased Eurofins DiscoverX KINOMEscan
How it was run: (§1)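 Competition binding run for 1 h at room temperature; kinase left unbound by compound was captured on an immobilized affinity ligand and quantified by qPCR. Kd was taken from a 12-point half-log dilution series with a 33 μM top concentration.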

NEK11 = target: T2, NEK11 (Homo sapiens, UniProt Q8NG66)
T2 construct: purchased Eurofins DiscoverX KINOMEscan
How it was run: (§2)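 Active-site competition format. Unbound kinase fraction measured by affinity-ligand capture plus qPCR after 1 h at RT. Kd from 12-point half-log titration, maximum 33 μM.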

ROS1 = target: T3, ROS1 (Homo sapiens, UniProt P08922)
T3 construct: purchased Eurofins DiscoverX KINOMEscan
How it was run: as §1

MAP4K3 = target: T4, MAP4K3 (Homo sapiens, UniProt Q8IVH8)
T4 construct: purchased Eurofins DiscoverX KINOMEscan
How it was run: as §1

CLK2 = target: T5, CLK2 (Homo sapiens, UniProt P49760)
T5 construct: purchased Eurofins DiscoverX KINOMEscan
How it was run: as §2

SNARK = target: T6, SNARK (Homo sapiens, UniProt Q9H093)
T6 construct: purchased Eurofins DiscoverX KINOMEscan
How it was run: as §1

ADCK3 = target: T7, ADCK3 (Homo sapiens, UniProt Q8NI60)
T7 construct: purchased Eurofins DiscoverX KINOMEscan
How it was run: as §2

PYK2 = target: T8, PYK2 (Homo sapiens, UniProt Q14289)
T8 construct: purchased Eurofins DiscoverX KINOMEscan
How it was run: as §1

ARK5 = target: T9, ARK5 (Homo sapiens, UniProt O60285)
T9 construct: purchased Eurofins DiscoverX KINOMEscan
How it was run: as §1

MET = target: T10, MET (Homo sapiens, UniProt P08581)
T10 construct: purchased Eurofins DiscoverX KINOMEscan
How it was run: as §1

PRKD3 = target: T11, PRKD3 (Homo sapiens, UniProt O94806)
T11 construct: purchased Eurofins DiscoverX KINOMEscan
How it was run: as §1

CSK = target: T12, CSK (Homo sapiens, UniProt P41240)
T12 construct: purchased Eurofins DiscoverX KINOMEscan
How it was run: as §1

MYO3A = target: T13, MYO3A (Homo sapiens, UniProt Q8NEV4)
T13 construct: purchased Eurofins DiscoverX KINOMEscan
How it was run: as §1

LIMK2 = target: T14, LIMK2 (Homo sapiens, UniProt P53671)
T14 construct: purchased Eurofins DiscoverX KINOMEscan
How it was run: as §1

NDR1 = target: T15, NDR1 (Homo sapiens, UniProt Q15208)
T15 construct: purchased Eurofins DiscoverX KINOMEscan
How it was run: as §1

PRKG2 = target: T16, PRKG2 (Homo sapiens, UniProt Q13237)
T16 construct: purchased Eurofins DiscoverX KINOMEscan
How it was run: as §2

BMPR1B = target: T17, BMPR1B (Homo sapiens, UniProt O00238)
T17 construct: purchased Eurofins DiscoverX KINOMEscan
How it was run: as §1

ACVR1B = target: T18, ACVR1B (Homo sapiens, UniProt P36896)
T18 construct: purchased Eurofins DiscoverX KINOMEscan
How it was run: as §2

CSNK1A1 = target: T19, CSNK1A1 (Homo sapiens, UniProt P48729)
T19 construct: purchased Eurofins DiscoverX KINOMEscan
How it was run: as §1

CSNK1E = target: T20, CSNK1E (Homo sapiens, UniProt P49674)
T20 construct: purchased Eurofins DiscoverX KINOMEscan
How it was run: as §2

LCK = target: T21, LCK (Homo sapiens, UniProt P06239)
T21 construct: purchased Eurofins DiscoverX KINOMEscan
How it was run: as §2

PAK7 = target: T22, PAK7 (Homo sapiens, UniProt Q9P286)
T22 construct: purchased Eurofins DiscoverX KINOMEscan
How it was run: as §1

SGK = target: T23, SGK (Homo sapiens, UniProt O00141)
T23 construct: purchased Eurofins DiscoverX KINOMEscan
How it was run: as §1

S6K1 = target: T24, S6K1 (Homo sapiens, UniProt P23443)
T24 construct: purchased Eurofins DiscoverX KINOMEscan
How it was run: as §1

TLK2 = target: T25, TLK2 (Homo sapiens, UniProt Q86UE8)
T25 construct: purchased Eurofins DiscoverX KINOMEscan
How it was run: as §2

TIE2 = target: T26, TIE2 (Homo sapiens, UniProt Q02763)
T26 construct: purchased Eurofins DiscoverX KINOMEscan
How it was run: as §1

NDR2 = target: T27, NDR2 (Homo sapiens, UniProt Q9Y2H1)
T27 construct: purchased Eurofins DiscoverX KINOMEscan
How it was run: as §2

ADCK4 = target: T28, ADCK4 (Homo sapiens, UniProt Q96D53)
T28 construct: purchased Eurofins DiscoverX KINOMEscan
How it was run: as §1

NEK4 = target: T29, NEK4 (Homo sapiens, UniProt P51957)
T29 construct: purchased Eurofins DiscoverX KINOMEscan
How it was run: as §1

ABL1 (Y253F)-P = target: T30, ABL1 (Y253F)-P (Homo sapiens, UniProt P00519, Y253F)
T30 construct: purchased Eurofins DiscoverX KINOMEscan
How it was run: as §1

MARK4 = target: T31, MARK4 (Homo sapiens, UniProt Q96L34)
T31 construct: purchased Eurofins DiscoverX KINOMEscan
How it was run: as §2

TAOK1 = target: T32, TAOK1 (Homo sapiens, UniProt Q7L7X3)
T32 construct: purchased Eurofins DiscoverX KINOMEscan
How it was run: as §1

LZK = target: T33, LZK (Homo sapiens, UniProt O43283)
T33 construct: purchased Eurofins DiscoverX KINOMEscan
How it was run: as §1

MYO3B = target: T34, MYO3B (Homo sapiens, UniProt Q8WXR4)
T34 construct: purchased Eurofins DiscoverX KINOMEscan
How it was run: as §2

MET (Y1235D) = target: T35, MET (Y1235D) (Homo sapiens, UniProt P08581, Y1235D)
T35 construct: purchased Eurofins DiscoverX KINOMEscan
How it was run: as §1

PLK2 = target: T36, PLK2 (Homo sapiens, UniProt Q9NYY3)
T36 construct: purchased Eurofins DiscoverX KINOMEscan
How it was run: as §2

TYK2 (JH1 domain-cat.) = target: T37, TYK2 (JH1 domain-cat.) (Homo sapiens, UniProt P29597)
T37 construct: TYK2 (JH1 domain-cat.); purchased Eurofins DiscoverX KINOMEscan
How it was run: as §1

TLK1 = target: T38, TLK1 (Homo sapiens, UniProt Q9UKI8)
T38 construct: purchased Eurofins DiscoverX KINOMEscan
How it was run: as §1

PKAC-β = target: T39, PKAC-β (Homo sapiens, UniProt P22694)
T39 construct: purchased Eurofins DiscoverX KINOMEscan
How it was run: as §1

PIK3CA (H1047Y) = target: T40, PIK3CA (H1047Y) (Homo sapiens, UniProt P42336, H1047Y)
T40 construct: purchased Eurofins DiscoverX KINOMEscan
How it was run: as §1

T40 sequence (P42336 whole entry H1047Y): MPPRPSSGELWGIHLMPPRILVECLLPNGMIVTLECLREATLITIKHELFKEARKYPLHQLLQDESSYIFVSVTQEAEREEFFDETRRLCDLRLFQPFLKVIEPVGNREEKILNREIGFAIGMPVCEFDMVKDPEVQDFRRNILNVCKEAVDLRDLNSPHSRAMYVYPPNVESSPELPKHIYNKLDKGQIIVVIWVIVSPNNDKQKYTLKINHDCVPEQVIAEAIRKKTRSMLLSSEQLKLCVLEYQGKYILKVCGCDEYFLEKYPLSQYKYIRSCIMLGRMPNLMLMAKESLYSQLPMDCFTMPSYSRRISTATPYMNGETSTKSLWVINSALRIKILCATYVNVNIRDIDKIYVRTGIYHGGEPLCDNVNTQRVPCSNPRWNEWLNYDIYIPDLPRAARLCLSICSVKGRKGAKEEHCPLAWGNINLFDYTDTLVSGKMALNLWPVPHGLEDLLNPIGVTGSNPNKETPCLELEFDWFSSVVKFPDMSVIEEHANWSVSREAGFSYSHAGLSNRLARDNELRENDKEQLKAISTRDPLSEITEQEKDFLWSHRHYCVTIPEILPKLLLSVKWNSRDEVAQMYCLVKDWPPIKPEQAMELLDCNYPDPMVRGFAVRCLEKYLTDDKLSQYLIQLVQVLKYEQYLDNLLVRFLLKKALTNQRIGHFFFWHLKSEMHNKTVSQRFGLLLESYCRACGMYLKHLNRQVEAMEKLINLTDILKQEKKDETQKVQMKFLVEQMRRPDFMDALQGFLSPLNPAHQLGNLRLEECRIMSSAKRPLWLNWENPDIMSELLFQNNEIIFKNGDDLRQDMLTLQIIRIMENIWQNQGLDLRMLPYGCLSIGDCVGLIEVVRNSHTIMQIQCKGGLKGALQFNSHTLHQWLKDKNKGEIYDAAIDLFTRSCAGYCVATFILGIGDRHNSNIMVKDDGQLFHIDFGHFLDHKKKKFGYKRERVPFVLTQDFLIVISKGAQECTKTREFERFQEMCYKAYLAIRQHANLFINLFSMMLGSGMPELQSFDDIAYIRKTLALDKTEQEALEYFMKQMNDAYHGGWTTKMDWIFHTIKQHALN
T22 sequence (Q9P286 whole entry): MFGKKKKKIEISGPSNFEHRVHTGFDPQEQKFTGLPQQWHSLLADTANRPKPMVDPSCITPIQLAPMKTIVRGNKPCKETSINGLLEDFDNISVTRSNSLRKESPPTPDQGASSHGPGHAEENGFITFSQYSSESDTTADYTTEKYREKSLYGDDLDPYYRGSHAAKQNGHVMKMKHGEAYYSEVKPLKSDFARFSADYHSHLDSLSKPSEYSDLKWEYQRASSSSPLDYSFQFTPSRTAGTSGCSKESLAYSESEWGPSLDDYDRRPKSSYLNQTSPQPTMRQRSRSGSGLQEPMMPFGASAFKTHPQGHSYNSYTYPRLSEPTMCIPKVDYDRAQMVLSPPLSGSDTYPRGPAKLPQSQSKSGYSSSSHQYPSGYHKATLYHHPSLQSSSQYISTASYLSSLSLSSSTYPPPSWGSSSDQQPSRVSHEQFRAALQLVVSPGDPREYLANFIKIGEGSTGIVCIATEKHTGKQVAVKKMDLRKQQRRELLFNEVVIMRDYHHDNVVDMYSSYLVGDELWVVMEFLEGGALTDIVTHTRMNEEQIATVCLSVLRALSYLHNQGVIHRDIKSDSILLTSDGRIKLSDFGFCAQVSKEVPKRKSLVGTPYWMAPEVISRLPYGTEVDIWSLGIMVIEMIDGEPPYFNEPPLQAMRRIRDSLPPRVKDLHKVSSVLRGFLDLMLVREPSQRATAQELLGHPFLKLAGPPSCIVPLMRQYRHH
T14 sequence (P53671 whole entry): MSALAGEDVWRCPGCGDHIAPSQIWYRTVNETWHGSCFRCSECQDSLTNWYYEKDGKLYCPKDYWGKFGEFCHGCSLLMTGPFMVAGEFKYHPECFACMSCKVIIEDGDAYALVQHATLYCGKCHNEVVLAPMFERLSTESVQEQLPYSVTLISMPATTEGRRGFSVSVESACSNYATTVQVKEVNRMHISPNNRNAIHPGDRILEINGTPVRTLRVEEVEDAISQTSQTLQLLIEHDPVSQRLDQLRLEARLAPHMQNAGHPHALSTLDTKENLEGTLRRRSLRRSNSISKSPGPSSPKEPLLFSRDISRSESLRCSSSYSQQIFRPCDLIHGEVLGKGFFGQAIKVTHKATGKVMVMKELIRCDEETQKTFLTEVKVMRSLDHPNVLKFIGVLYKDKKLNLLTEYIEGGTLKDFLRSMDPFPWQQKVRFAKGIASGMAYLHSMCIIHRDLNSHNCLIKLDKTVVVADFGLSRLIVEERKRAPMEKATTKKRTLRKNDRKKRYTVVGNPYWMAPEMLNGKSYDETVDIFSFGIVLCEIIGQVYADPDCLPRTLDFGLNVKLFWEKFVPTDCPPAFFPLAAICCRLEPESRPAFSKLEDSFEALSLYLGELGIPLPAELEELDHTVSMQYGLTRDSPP
T25 sequence (Q86UE8 whole entry): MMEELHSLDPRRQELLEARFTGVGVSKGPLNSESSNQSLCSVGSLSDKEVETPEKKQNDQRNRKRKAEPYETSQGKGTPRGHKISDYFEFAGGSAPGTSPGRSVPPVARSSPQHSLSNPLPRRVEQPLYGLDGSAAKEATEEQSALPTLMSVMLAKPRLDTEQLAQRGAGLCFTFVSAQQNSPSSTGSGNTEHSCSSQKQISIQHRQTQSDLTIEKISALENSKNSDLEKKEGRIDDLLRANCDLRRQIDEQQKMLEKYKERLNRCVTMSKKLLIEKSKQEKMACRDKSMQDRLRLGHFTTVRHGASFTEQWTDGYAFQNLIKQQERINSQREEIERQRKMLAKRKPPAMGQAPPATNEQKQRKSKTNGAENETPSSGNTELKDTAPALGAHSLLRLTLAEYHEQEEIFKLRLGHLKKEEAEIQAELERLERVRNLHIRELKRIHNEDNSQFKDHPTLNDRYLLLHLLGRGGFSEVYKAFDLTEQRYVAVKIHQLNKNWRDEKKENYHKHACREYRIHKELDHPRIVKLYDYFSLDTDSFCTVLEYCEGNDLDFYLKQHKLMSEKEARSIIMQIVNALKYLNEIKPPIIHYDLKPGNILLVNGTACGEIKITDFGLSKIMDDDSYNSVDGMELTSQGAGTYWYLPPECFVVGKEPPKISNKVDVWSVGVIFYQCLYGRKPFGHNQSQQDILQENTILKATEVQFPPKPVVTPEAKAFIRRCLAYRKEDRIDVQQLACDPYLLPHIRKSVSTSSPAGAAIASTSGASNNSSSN
T11 sequence (O94806 whole entry): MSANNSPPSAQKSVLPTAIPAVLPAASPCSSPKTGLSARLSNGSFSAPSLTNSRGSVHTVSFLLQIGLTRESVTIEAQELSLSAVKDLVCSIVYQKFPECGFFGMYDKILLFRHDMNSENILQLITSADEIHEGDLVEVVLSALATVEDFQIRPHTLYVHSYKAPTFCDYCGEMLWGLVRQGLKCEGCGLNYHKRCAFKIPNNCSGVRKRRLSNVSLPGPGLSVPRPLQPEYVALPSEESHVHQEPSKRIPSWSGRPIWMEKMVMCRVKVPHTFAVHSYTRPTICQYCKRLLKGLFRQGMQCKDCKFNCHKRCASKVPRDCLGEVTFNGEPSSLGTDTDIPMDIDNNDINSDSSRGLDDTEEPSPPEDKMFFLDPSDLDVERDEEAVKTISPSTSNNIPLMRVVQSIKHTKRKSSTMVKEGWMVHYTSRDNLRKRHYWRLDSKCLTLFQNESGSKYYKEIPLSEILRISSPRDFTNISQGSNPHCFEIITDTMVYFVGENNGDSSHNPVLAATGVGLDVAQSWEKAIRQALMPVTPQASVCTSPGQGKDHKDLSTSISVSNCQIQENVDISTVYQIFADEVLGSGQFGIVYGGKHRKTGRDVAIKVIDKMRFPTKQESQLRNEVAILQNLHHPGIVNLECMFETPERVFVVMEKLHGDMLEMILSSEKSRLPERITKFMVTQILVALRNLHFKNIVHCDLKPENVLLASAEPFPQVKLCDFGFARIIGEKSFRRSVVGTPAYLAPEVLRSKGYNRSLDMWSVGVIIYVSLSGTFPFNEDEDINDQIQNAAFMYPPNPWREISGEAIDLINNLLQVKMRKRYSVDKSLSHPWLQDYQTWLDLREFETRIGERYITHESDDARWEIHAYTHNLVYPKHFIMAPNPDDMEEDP
T36 sequence (Q9NYY3 whole entry): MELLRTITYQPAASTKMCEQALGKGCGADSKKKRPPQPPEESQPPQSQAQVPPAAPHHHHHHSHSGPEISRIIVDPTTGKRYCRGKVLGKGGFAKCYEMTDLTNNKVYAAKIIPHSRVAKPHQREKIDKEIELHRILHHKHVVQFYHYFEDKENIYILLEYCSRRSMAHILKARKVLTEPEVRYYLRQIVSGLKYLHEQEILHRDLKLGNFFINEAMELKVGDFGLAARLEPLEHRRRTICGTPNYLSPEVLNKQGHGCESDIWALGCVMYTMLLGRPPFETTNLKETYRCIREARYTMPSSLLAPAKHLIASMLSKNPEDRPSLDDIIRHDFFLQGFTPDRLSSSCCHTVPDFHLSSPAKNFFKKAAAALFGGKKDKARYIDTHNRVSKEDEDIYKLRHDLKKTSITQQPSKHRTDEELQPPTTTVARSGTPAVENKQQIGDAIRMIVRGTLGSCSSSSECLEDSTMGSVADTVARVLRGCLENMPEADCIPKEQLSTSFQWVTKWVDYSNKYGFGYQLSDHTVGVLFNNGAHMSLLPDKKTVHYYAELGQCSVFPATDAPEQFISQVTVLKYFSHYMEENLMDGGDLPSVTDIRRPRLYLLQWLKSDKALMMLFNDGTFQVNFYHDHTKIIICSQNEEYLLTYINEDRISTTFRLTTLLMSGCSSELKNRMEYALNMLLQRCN
T37 sequence (P29597 888-1187 limits assumed): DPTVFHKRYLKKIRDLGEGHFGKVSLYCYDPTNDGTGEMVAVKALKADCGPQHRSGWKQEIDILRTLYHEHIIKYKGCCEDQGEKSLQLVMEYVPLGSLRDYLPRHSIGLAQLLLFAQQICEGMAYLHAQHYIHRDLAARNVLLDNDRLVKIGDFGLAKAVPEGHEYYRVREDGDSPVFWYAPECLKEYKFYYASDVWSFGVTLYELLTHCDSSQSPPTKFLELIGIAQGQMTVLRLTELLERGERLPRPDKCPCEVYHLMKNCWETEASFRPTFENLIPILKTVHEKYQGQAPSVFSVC

O=C1Nc2c(cc([N+](=O)[O-])c3c2CCCC3)C1=NO [Compound 5d, 3-(Hydroxyimino)-5-nitro-1,3,6,7,8,9-hexahydro-2H-benzo[g]indol-2-one]
inhibition at 10 µM (ACVR1): 2%
inhibition at 10 µM (NEK11): 46%
inhibition at 10 µM (ROS1): 67%
inhibition at 10 µM (MAP4K3): 11%
inhibition at 10 µM (CLK2): 95.9%
inhibition at 10 µM (SNARK): 90%
inhibition at 10 µM (ADCK3): 12%
inhibition at 10 µM (PYK2): 0%
inhibition at 10 µM (ARK5): 24%
inhibition at 10 µM (MET): 63%
inhibition at 10 µM (PRKD3): 77%
inhibition at 10 µM (CSK): 21%
inhibition at 10 µM (MYO3A): 51%
inhibition at 10 µM (LIMK2): 0%
inhibition at 10 µM (NDR1): 34%
inhibition at 10 µM (PRKG2): 6%
inhibition at 10 µM (BMPR1B): 19%
inhibition at 10 µM (ACVR1B): 10%
inhibition at 10 µM (CSNK1A1): 93.5%
inhibition at 10 µM (CSNK1E): 80%
inhibition at 10 µM (LCK): 29%
inhibition at 10 µM (PAK7): 55%
inhibition at 10 µM (SGK): 91.1%
inhibition at 10 µM (S6K1): 51%
inhibition at 10 µM (TLK2): 0%
inhibition at 10 µM (TIE2): 21%
inhibition at 10 µM (NDR2): 13%
inhibition at 10 µM (ADCK4): 12%
inhibition at 10 µM (NEK4): 1%
inhibition at 10 µM (ABL1 (Y253F)-P): 41%
inhibition at 10 µM (MARK4): 20%
inhibition at 10 µM (TAOK1): 62%
inhibition at 10 µM (LZK): 0%
inhibition at 10 µM (MYO3B): 30%
inhibition at 10 µM (MET (Y1235D)): 25%
inhibition at 10 µM (PLK2): 67%
inhibition at 10 µM (TYK2 (JH1 domain-cat.)): 90%
inhibition at 10 µM (TLK1): 19%
inhibition at 10 µM (PKAC-β): 2%
inhibition at 10 µM (PIK3CA (H1047Y)): 36%
